Key:
UACC-62 = assay: NCI-60 five-dose SRB assay; type: cell-based; conditions: Homo sapiens; UACC-62, Melanoma, five-dose test
Protocol: (§1) The anticancer screening of target compounds over a full panel of 60 human cancer cell lines was carried out using Sulforhodamine B (SRB) assay at the National Cancer Institute (NCI), Bethesda, Maryland, USA, employing the standard protocol.

HCC-2998 = assay: NCI-60 five-dose SRB assay; type: cell-based; conditions: Homo sapiens; HCC-2998, Colon cancer, five-dose test
Protocol: as §1

MDA-MB-435 = assay: NCI-60 five-dose SRB assay; type: cell-based; conditions: Homo sapiens; MDA-MB-435, Melanoma, five-dose test
Protocol: as §1

SK-MEL-5 = assay: NCI-60 five-dose SRB assay; type: cell-based; conditions: Homo sapiens; SK-MEL-5, Melanoma, five-dose test
Protocol: as §1

MALME-3M = assay: NCI-60 five-dose SRB assay; type: cell-based; conditions: Homo sapiens, Melanoma, five-dose test
Protocol: as §1

SK-MEL-2 = assay: NCI-60 five-dose SRB assay; type: cell-based; conditions: Homo sapiens; SK-MEL-2, Melanoma, five-dose test
Protocol: as §1

OVCAR-8 = assay: NCI-60 five-dose SRB assay; type: cell-based; conditions: Homo sapiens; OVCAR-8, Ovarian cancer, five-dose test
Protocol: as §1

UACC-257 = assay: NCI-60 five-dose SRB assay; type: cell-based; conditions: Homo sapiens; UACC-257, Melanoma, five-dose test
Protocol: as §1

SW-620 = assay: NCI-60 five-dose SRB assay; type: cell-based; conditions: Homo sapiens; SW-620, Colon cancer, five-dose test
Protocol: as §1

U251 = assay: NCI-60 five-dose SRB assay; type: cell-based; conditions: Homo sapiens, U-251; U251, CNS cancer, five-dose test
Protocol: as §1

COLO 205 = assay: NCI-60 five-dose SRB assay; type: cell-based; conditions: Homo sapiens; COLO 205, Colon cancer, five-dose test
Protocol: as §1

HOP-92 = assay: NCI-60 five-dose SRB assay; type: cell-based; conditions: Homo sapiens; HOP-92, NSCL cancer, five-dose test
Protocol: as §1

RXF 393 = assay: NCI-60 five-dose SRB assay; type: cell-based; conditions: Homo sapiens; RXF 393, Renal cancer, five-dose test
Protocol: as §1

MCF7 = assay: NCI-60 five-dose SRB assay; type: cell-based; conditions: Homo sapiens; MCF7, Breast cancer, five-dose test
Protocol: as §1

CCRF-CEM = assay: NCI-60 five-dose SRB assay; type: cell-based; conditions: Homo sapiens, Leukemia, five-dose test
Protocol: as §1

HL-60(TB) = assay: NCI-60 five-dose SRB assay; type: cell-based; conditions: Homo sapiens, Leukemia, five-dose test
Protocol: as §1

NCI-H522 = assay: NCI-60 five-dose SRB assay; type: cell-based; conditions: Homo sapiens; NCI-H522, NSCL cancer, five-dose test
Protocol: as §1

T-47D = assay: NCI-60 five-dose SRB assay; type: cell-based; conditions: Homo sapiens, T47D, Breast cancer, five-dose test
Protocol: as §1

CAKI-1 = assay: NCI-60 five-dose SRB assay; type: cell-based; conditions: Homo sapiens; CAKI-1, Renal cancer, five-dose test
Protocol: as §1

A549/ATCC = assay: NCI-60 five-dose SRB assay; type: cell-based; conditions: Homo sapiens, NSCL cancer, five-dose test
Protocol: as §1

SF-539 = assay: NCI-60 five-dose SRB assay; type: cell-based; conditions: Homo sapiens; SF-539, CNS cancer, five-dose test
Protocol: as §1

OVCAR-4 = assay: NCI-60 five-dose SRB assay; type: cell-based; conditions: Homo sapiens; OVCAR-4, Ovarian cancer, five-dose test
Protocol: as §1

NCI-H322M = assay: NCI-60 five-dose SRB assay; type: cell-based; conditions: Homo sapiens, NSCL cancer, five-dose test
Protocol: as §1

K-562 = assay: NCI-60 five-dose SRB assay; type: cell-based; conditions: Homo sapiens, K562; K-562, Leukemia, five-dose test
Protocol: as §1

LOX IMVI = assay: NCI-60 five-dose SRB assay; type: cell-based; conditions: Homo sapiens, Melanoma, five-dose test
Protocol: as §1

786-0 = assay: NCI-60 five-dose SRB assay; type: cell-based; conditions: Homo sapiens; 786-0, Renal cancer, five-dose test
Protocol: as §1

MOLT-4 = assay: NCI-60 five-dose SRB assay; type: cell-based; conditions: Homo sapiens; MOLT-4, Leukemia, five-dose test
Protocol: as §1

HOP-62 = assay: NCI-60 five-dose SRB assay; type: cell-based; conditions: Homo sapiens; HOP-62, NSCL cancer, five-dose test
Protocol: as §1

IGROV1 = assay: NCI-60 five-dose SRB assay; type: cell-based; conditions: Homo sapiens, IGROV-1; IGROV1, Ovarian cancer, five-dose test
Protocol: as §1

KM12 = assay: NCI-60 five-dose SRB assay; type: cell-based; conditions: Homo sapiens; KM12, Colon cancer, five-dose test
Protocol: as §1

OVCAR-3 = assay: NCI-60 five-dose SRB assay; type: cell-based; conditions: Homo sapiens; OVCAR-3, Ovarian cancer, five-dose test
Protocol: as §1

NCI-H226 = assay: NCI-60 five-dose SRB assay; type: cell-based; conditions: Homo sapiens; NCI-H226, NSCL cancer, five-dose test
Protocol: as §1

HCT-116 = assay: NCI-60 five-dose SRB assay; type: cell-based; conditions: Homo sapiens; HCT-116, Colon cancer, five-dose test
Protocol: as §1

SNB-75 = assay: NCI-60 five-dose SRB assay; type: cell-based; conditions: Homo sapiens; SNB-75, CNS cancer, five-dose test
Protocol: as §1

SF-295 = assay: NCI-60 five-dose SRB assay; type: cell-based; conditions: Homo sapiens; SF-295, CNS cancer, five-dose test
Protocol: as §1

M14 = assay: NCI-60 five-dose SRB assay; type: cell-based; conditions: Homo sapiens; M14, Melanoma, five-dose test
Protocol: as §1

ACHN = assay: NCI-60 five-dose SRB assay; type: cell-based; conditions: Homo sapiens, Renal cancer, five-dose test
Protocol: as §1

SK-MEL-28 = assay: NCI-60 five-dose SRB assay; type: cell-based; conditions: Homo sapiens; SK-MEL-28, Melanoma, five-dose test
Protocol: as §1

C-RAF = C-RAF (Homo sapiens, UniProt P04049); assay: HotSpot kinase assay (RBC), C-RAF; conditions: IC50 C-RAF, 10 µM ATP, 10-dose singlicate IC50 mode
Chain of C-RAF (P04049 whole entry): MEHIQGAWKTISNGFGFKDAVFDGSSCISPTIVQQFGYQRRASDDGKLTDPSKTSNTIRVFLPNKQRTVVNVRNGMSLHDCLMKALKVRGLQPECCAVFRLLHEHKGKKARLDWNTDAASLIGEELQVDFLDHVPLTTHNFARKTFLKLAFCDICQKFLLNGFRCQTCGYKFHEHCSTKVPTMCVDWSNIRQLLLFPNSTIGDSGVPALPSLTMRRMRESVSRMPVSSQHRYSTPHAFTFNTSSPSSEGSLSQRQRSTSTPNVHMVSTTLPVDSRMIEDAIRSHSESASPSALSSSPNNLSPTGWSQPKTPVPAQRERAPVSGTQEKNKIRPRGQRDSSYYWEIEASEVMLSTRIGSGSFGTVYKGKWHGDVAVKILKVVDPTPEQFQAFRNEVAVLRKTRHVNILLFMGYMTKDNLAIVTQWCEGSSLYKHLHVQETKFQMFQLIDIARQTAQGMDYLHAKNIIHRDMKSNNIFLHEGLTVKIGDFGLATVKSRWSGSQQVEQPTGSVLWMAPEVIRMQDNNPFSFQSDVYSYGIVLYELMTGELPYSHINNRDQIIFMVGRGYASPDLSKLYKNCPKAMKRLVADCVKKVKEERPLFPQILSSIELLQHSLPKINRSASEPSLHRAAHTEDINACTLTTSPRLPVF
Text: Reaction Biology Corporation (RBC) Kinase HotSpotSM service was utilized for cell-free biochemical kinase evaluation of the target compounds according to the reported assay protocol [46].

PC-3 = assay: cells; conditions: Homo sapiens
Protocol: as §1

MDA-MB-231/ATCC = assay: cells; conditions: Homo sapiens
Protocol: as §1

MDA-MB-468 = assay: cells; conditions: Homo sapiens
Protocol: as §1

`COc1cccc2nc(Nc3cccc(NC(=O)c4ccc(CN5CCN(C)CC5)c(C(F)(F)F)c4)c3)ccc12` [Compound 14a, 4-((4-methylpiperazin-1-yl)methyl)-N-(3-((5-methoxyquinolin-2-yl)amino)phenyl)-3-(trifluoromethyl)benzamide] showed a GI50 (UACC-62) of 1.75 µM, a GI50 (HCC-2998) of 1.99 µM and a GI50 (MDA-MB-435) of 1.68 µM. For the same compound, the GI50 (SK-MEL-5) was 1.62 µM, the GI50 (MALME-3M) was 1.65 µM and the GI50 (SK-MEL-2) was 3.52 µM. For the same compound, the GI50 (OVCAR-8) was 3.09 µM, the GI50 (UACC-257) was 1.98 µM and the GI50 (SW-620) was 1.73 µM. It also gave a GI50 (U251) of 1.92 µM, a GI50 (COLO 205) of 1.79 µM and a GI50 (HOP-92) of 1.5 µM. The GI50 (RXF 393) was 1.73 µM, the GI50 (MCF7) was 1.57 µM and the GI50 (CCRF-CEM) was 2.1 µM. For the same compound, the GI50 (HL-60(TB)) was 1.22 µM, the GI50 (NCI-H522) was 1.79 µM and the GI50 (T-47D) was 2.28 µM. The GI50 (CAKI-1) was 1.81 µM, the GI50 (A549/ATCC) was 2.44 µM and the GI50 (SF-539) was 1.64 µM. The GI50 (OVCAR-4) was 2.21 µM, the GI50 (NCI-H322M) was 2.29 µM and the GI50 (K-562) was 2.7 µM. The GI50 (LOX IMVI) was 1.74 µM, the GI50 (786-0) was 1.76 µM and the GI50 (MOLT-4) was 1.45 µM. It also gave a GI50 (HOP-62) of 1.56 µM, a GI50 (IGROV1) of 2.25 µM and a GI50 (KM12) of 2.13 µM. It also gave a GI50 (OVCAR-3) of 2.15 µM, a GI50 (NCI-H226) of 4.63 µM and a GI50 (HCT-116) of 1.82 µM. The GI50 (SNB-75) was 1.6 µM, the GI50 (SF-295) was 1.77 µM and the GI50 (M14) was 1.76 µM. The GI50 (ACHN) was 2.05 µM, the GI50 (SK-MEL-28) was 1.71 µM and the IC50 (C-RAF) was 0.151 ± 0.00235 µM. It also gave a GI50 (PC-3) of 1.7 µM, a GI50 (MDA-MB-231/ATCC) of 1.77 µM and a GI50 (MDA-MB-468) of 1.92 µM.
`COc1cccc2nc(Nc3cccc(NC(=O)c4ccc(CN5CCCN(C)CC5)c(C(F)(F)F)c4)c3)ccc12` [Compound 14b, N-(3-((5-methoxyquinolin-2-yl)amino)phenyl)-4-((4-methyl-1,4-diazepan-1-yl)methyl)-3-(trifluoromethyl)benzamide] was tested, and the GI50 (UACC-62) was 1.81 µM, the GI50 (HCC-2998) was 1.71 µM and the GI50 (MDA-MB-435) was 1.8 µM. For the same compound, the GI50 (SK-MEL-5) was 1.71 µM, the GI50 (MALME-3M) was 1.72 µM and the GI50 (SK-MEL-2) was 2.15 µM. For the same compound, the GI50 (OVCAR-8) was 2.03 µM, the GI50 (UACC-257) was 1.86 µM and the GI50 (SW-620) was 1.75 µM. It also gave a GI50 (U251) of 1.76 µM, a GI50 (COLO 205) of 1.81 µM and a GI50 (RXF 393) of 1.66 µM. For the same compound, the GI50 (MCF7) was 1.59 µM, the GI50 (CCRF-CEM) was 1.62 µM and the GI50 (HL-60(TB)) was 1.65 µM. For the same compound, the GI50 (NCI-H522) was 1.76 µM, the GI50 (T-47D) was 5.43 µM and the GI50 (CAKI-1) was 1.72 µM. The GI50 (A549/ATCC) was 1.9 µM, the GI50 (SF-539) was 1.55 µM and the GI50 (OVCAR-4) was 2.67 µM. For the same compound, the GI50 (NCI-H322M) was 2.12 µM, the GI50 (K-562) was 1.23 µM and the GI50 (LOX IMVI) was 1.68 µM. It also gave a GI50 (786-0) of 1.72 µM, a GI50 (MOLT-4) of 1.24 µM and a GI50 (HOP-62) of 1.76 µM. The GI50 (IGROV1) was 1.81 µM, the GI50 (KM12) was 2.49 µM and the GI50 (OVCAR-3) was 2.14 µM. The GI50 (NCI-H226) was 1.94 µM, the GI50 (HCT-116) was 1.67 µM and the GI50 (SNB-75) was 1.52 µM. The GI50 (SF-295) was 1.74 µM, the GI50 (M14) was 1.81 µM and the GI50 (ACHN) was 1.87 µM. The GI50 (SK-MEL-28) was 1.68 µM, the IC50 (C-RAF) was 0.192 ± 0.0006 µM and the GI50 (PC-3) was 1.54 µM. It also gave a GI50 (MDA-MB-231/ATCC) of 1.83 µM and a GI50 (MDA-MB-468) of 1.56 µM.
Work on `CCN1CCN(Cc2ccc(C(=O)Nc3cccc(Nc4ccc5c(OC)cccc5n4)c3)cc2C(F)(F)F)CC1` [Compound 14c, 4-((4-ethylpiperazin-1-yl)methyl)-N-(3-((5-methoxyquinolin-2-yl)amino)phenyl)-3-(trifluoromethyl)benzamide] yielded a GI50 (UACC-62) of 1.53 µM, a GI50 (HCC-2998) of 1.59 µM and a GI50 (MDA-MB-435) of 1.36 µM. The GI50 (SK-MEL-5) was 1.45 µM, the GI50 (MALME-3M) was 1.44 µM and the GI50 (SK-MEL-2) was 10.7 µM. For the same compound, the GI50 (OVCAR-8) was 6.78 µM, the GI50 (UACC-257) was 1.51 µM and the GI50 (SW-620) was 1.45 µM. It also gave a GI50 (U251) of 1.69 µM, a GI50 (COLO 205) of 1.74 µM and a GI50 (HOP-92) of 1.58 µM. For the same compound, the GI50 (RXF 393) was 1.63 µM, the GI50 (MCF7) was 1.5 µM and the GI50 (CCRF-CEM) was 1.97 µM. For the same compound, the GI50 (HL-60(TB)) was 1.57 µM, the GI50 (NCI-H522) was 1.7 µM and the GI50 (T-47D) was 2.11 µM. It also gave a GI50 (CAKI-1) of 1.46 µM, a GI50 (A549/ATCC) of 2.5 µM and a GI50 (SF-539) of 1.37 µM. The GI50 (OVCAR-4) was 2.89 µM, the GI50 (NCI-H322M) was 3.5 µM and the GI50 (K-562) was 2.11 µM. For the same compound, the GI50 (LOX IMVI) was 1.45 µM, the GI50 (786-0) was 1.41 µM and the GI50 (MOLT-4) was 1.23 µM. It also gave a GI50 (HOP-62) of 3.67 µM, a GI50 (IGROV1) of 3.09 µM and a GI50 (KM12) of 2.2 µM. The GI50 (OVCAR-3) was 1.8 µM, the GI50 (NCI-H226) was 5.53 µM and the GI50 (HCT-116) was 1.45 µM. The GI50 (SNB-75) was 1.2 µM, the GI50 (SF-295) was 1.52 µM and the GI50 (M14) was 1.47 µM. It also gave a GI50 (ACHN) of 1.85 µM, a GI50 (SK-MEL-28) of 1.56 µM and an IC50 (C-RAF) of 0.182 ± 0.0152 µM. The GI50 (PC-3) was 2.14 µM, the GI50 (MDA-MB-231/ATCC) was 1.54 µM and the GI50 (MDA-MB-468) was 1.6 µM.

— PMC9963398, “Discovery of New Quinolone-Based Diarylamides as Potent B-RAF^V600E/C-RAF Kinase Inhibitors Endowed with Promising In Vitro Anticancer Activity” (International Journal of Molecular Sciences, 2023)
